The values that follow come from patent publication US6596854B2, “Isolated nucleic acid molecule encoding a variant human eukaryotic Intiation Factor 4E protein” (Emory University, priority 1996, dated 2003).

“Also recorded” adds a separate entry of the source.

For one data set, the target named is T1, eIF-4E (Homo sapiens, UniProt P06730).
T1 construct: made in house; host or cells: E. coli BL21(DE3), pET-3d
The experiment in a line: Photoaffinity labeling of eIF-4E with labeled GTP analog. It is filed as binding. To be noted: competition and saturation. From the text:
Studies on the binding site of eIF-4E have defined a sequence of amino acids, involved in binding m^7G-RNA extending approximately from positions 112-123, numbering from the translation start site. The region of amino acids involved in the binding of eIF-4E to m^7G-RNA was identified using photoaffinity labeling with a labeled analog, [γ-^32P] 8-N3GTP. [Jayaram, B. et al. (1994) J. Biol. Chem. 269:3233-3242; Shoemaker, M. T. et al. (1993) J. Biol. Chem. 32:1883-1890; Salvucci, M. E. et al. (1992) Biochemistry 31:4479-4487]. […] The analog binding to eIF-4E was rendered irreversible by a photo-chemical reaction and a tryptic peptide bearing the analog label was isolated by aluminum-III chelate chromatography and reverse phase HPLC. Once the binding region peptide was identified, it was then possible to employ alanine-scanning mutations to determine the contribution of specific amino acid residues to the binding, and to generate modified eIF-4E proteins with altered binding affinities. Modified eIF-4E analog proteins having either increased or decreased binding affinities have been made. […] Enhanced binding affinity can lead to increased capped RNA stability and increased duration of expression. Decreased binding affinity can be of value where sensitivity to regulatory influences is desired. […]

Data set [1] concerns translation of globin mRNA. The experiment in a line: Cell-free translation in eIF-4E-depleted rabbit reticulocyte lysates. The data set is classed as biochemical. Here is the method:
Translational activity of eIF-4E variants: The ability of eIF-4E variants to initiate translation was examined in rabbit reticulocyte lysates which were depleted of endogenous eIF-4E by m^7GTP-Sepharose chromatography [Svitkin Y. V. et al. (1996) EMBO J. 15:7147-7155]. Western blotting analysis using anti-eIF-4E antibodies detected no eIF-4E in lysates after chromatography. […] The relative abilities of eIF-4E variants to restore globin mRNA translation were tested for all variants except W113A.
Cell-free translations: Nuclease-treated rabbit reticulocyte lysates (Promega) were depleted of endogenous eIF-4E by chromatography on m^7GTP-Sepharose according to the previously described protocol (Svitkin et al. 1996, supra). Aliquots of eIF-4E-depleted lysates were stored in liquid nitrogen vapor. eIF-4E depletion was verified by Western blotting analysis (data not shown). Cell-free translations were performed at 30° C. as described in detail in the Promega technical manual. […] In the case of L117A, which was not highly purified, a sufficient quantity of the preparation was added to approximate 75 ng of L117A. […] Dried filter papers were placed in vials with scintillation liquid and [^35S]methionine incorporated into protein was quantitated by liquid scintillation spectrometry.

Data set [2] has as its target m^7GTP (mRNA cap structure). Nature of the data set: Fluorescence quenching of intrinsic tryptophan of eIF-4E upon m^7GTP binding. On the procedure:
FIGS. 4A and 4B. […] The fluorescence intensity of recombinant human eIF-4E binding to m^7GTP as a function of m^7GTP concentration was measured. All solutions were prepared in buffer A at pH 7.6, 25° C. and the concentration of eIF-4E was 1 μM. An excitation wave length of 280 nm was used to monitor the fluorescence intensity at 330 nm.
Fluorescence measurements were made at 25° C. on a SPEX Fluorolog-T2 spectrofluorometer equipped with a high intensity (450 w) xenon arc lamp. An excitation wave length of 280 nm was used to monitor the tryptophan fluorescence emission of recombinant eIF-4E at 330 nm. Excitation and emission slit widths of 1.4 and 2.0 mm respectively were used and a 1.0 cm sample cell pathlength was employed. The buffer used for all fluorescence measurements was 20 mM HEPES at pH 7.6 and 1 mM DTT (designated Buffer A in FIG. 4). The steady state data were collected and analyzed as described previously [Carberry, S. E. et al. (1989) Biochemistry 28:8078-8083; Carberry, S. E. et al. (1990) Biochemistry 29:3337-3341. An excitation wavelength of 289 nm was used to monitor the tryptophan fluorescence emission of the proteins. Excitation and emission slit widths of 1.5 mm and 2.0 mm respectively were used and cell path length was 1.0 cm.
The preparation of large quantities of recombinant eIF-4E variants allowed us to directly determine the Kd of binding to the mRNA cap structure. Quantitation was performed by measuring the fluorescence quenching of intrinsic tryptophan residues in eIF-4E upon m^7GTP binding at 25≅ C. (Example 3). […] This is possibly a consequence of a lower stability of these variants at the higher temperature in the fluorescence quenching assay.

Data set [3] is classed as physicochemical, E. coli. On the procedure: Purification was carried out essentially as described by Hagedorn, et al. (1997) Protein Expression and Purif. 9:53-60, which is incorporated herein by reference. BL21(DE3) cells expressing human eIF-4E were grown in M9ZB media with ampicillin to an OD600 of 0.6-0.7 at which time cultures were induced with 0.4 mM IPTG [Studier, F. W. et al. (1990) supra]. […] Culture media was centrifuged at 500×g for 15 min, and E. coli pellets were suspended in 3 ml of 50 mM Tris-HCl pH 8.0, 100 mM KCl, 1 mM EDTA, 1 mM DTT, 1 mM PMSF, and 0.1 mg/ml lysozyme per gram wet weight. Samples were stirred intermittently on ice for 15 min and sonicated. Triton X-100 was added to a final concentration of 0.1%. The samples were mixed for 15 min at 4° C. and centrifuged at 15,000 rpm in a Sorvall SS-34 rotor for 20 min. Supernatants were used as starting material for subsequent chromatography purification steps.
In order to assess the solubility of each variant, cells were lysed and centrifuged as described supra. Supernatants prepared from equivalent wet weights of cells were analyzed by SDS-PAGE and Western blotting with anti-eIF-4E antibodies. Supernatants from all variants contained soluble eIF-4E. […] Except for the W113A and L117A variants, no major differences in solubility were observed among the other alanine variants studied.

T1 sequence (P06730 whole entry): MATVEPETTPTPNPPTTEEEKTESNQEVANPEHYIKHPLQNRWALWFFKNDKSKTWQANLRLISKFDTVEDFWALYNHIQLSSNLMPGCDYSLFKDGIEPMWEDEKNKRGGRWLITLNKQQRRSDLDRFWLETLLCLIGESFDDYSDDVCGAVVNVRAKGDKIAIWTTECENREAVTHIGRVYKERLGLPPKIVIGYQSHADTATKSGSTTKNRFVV

With `[N-]=[N+]=Nc1nc2c(=O)[nH]c(N)nc2n1C1OC(COP(=O)(O)OP(=O)(O)O[32P](=O)(O)O)C(O)C1O` (centres unmarked) [[γ-^32P] 8-N3GTP], the “binding of analog to eIF-4E” value at eIF-4E is “bind to eIF-4E in competition with m^7GTP and with capped RNA; also recorded: the binding site was saturated by the analog”.
Take `Cn1c[n+]([C@@H]2O[C@H](COP(=O)(O)OP(=O)([O-])O)[C@@H](O)[C@H]2O)c2nc(N)[nH]c(=O)c21` [m^7GDP, reference compound]: the “effect on eIF-4E-dependent translation” value in data set [1] (added to incubation containing wild-type eIF-4E) was “inhibited the eIF-4E-dependent translation”.
As for “wild-type eIF-4E: purified recombinant human eukaryotic Initiation Factor 4E expressed in E. coli, non-phosphorylated”, in data set [2] (Kd for m^7GTP, fluorescence quenching, 25 C, read-out: Binding constant Kd), the Kd is 140 nM. Besides, the equilibrium binding constant in data set [2] (binding to m^7GTP, pH 7.6 (20 mM HEPES buffer+1 mM DTT), 25° C.) is listed as 10.1±0.3 ×10^5M^−1. Further, the “equilibrium binding constant relative to results obtained using native human eIF-4E” value in data set [2] (compared with Carberry 1989) is 1.5-2 times higher. The binding constant in data set [2] (in vitro, worded as binding to m^7G-RNA) is reported as 10.1±0.3 ×10^5M^−1. Moreover, the “increase in the translation of globin mRNA” value in data set [1] (addition to eIF-4E-depleted lysate) was 2-4 fold. Moreover, in data set [3], the “fraction of eIF-4E expressed in E. coli that was soluble” value was “Note: Approximately 1-5% of the eIF-4E expressed in E. coli was soluble as estimated by Coomassie blue staining of SDS-PAGE analyzed samples”.
